Measured values published in ChEMBL document CHEMBL1909046, “DrugMatrix in vitro pharmacology data”.

What was measured:
Cannabinoid receptor 1 = Cannabinoid receptor 1 (Homo sapiens, UniProt P21554); type: cell membranes, Chem-1, Membrane; settings: chem-1; note: in other assays of this panel Not Active means under 50% inhibition at 10 µM
[1] = target: T1, C-X-C chemokine receptor type 2 (Homo sapiens, UniProt P25025); type: cell membranes, Membrane; settings: cho-k1; note: in other assays of this panel Not Active means under 50% inhibition at 10 µM
T1 sequence (P25025 whole entry): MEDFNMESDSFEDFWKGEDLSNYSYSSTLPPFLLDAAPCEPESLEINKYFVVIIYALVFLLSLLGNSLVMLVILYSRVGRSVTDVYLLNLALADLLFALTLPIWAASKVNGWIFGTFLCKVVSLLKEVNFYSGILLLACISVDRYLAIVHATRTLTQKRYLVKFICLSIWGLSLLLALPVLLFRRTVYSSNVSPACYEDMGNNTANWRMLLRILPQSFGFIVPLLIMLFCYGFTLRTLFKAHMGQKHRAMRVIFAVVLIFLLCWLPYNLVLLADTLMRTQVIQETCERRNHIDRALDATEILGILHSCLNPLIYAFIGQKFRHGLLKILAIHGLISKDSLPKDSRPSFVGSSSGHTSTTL

Melanocortin receptor 4 = Melanocortin receptor 4 (Homo sapiens, UniProt P32245); type: cell membranes, Membrane; settings: hek293; note: in other assays of this panel Not Active means under 50% inhibition at 10 µM
Melanocortin receptor 4, sequence (P32245 whole entry): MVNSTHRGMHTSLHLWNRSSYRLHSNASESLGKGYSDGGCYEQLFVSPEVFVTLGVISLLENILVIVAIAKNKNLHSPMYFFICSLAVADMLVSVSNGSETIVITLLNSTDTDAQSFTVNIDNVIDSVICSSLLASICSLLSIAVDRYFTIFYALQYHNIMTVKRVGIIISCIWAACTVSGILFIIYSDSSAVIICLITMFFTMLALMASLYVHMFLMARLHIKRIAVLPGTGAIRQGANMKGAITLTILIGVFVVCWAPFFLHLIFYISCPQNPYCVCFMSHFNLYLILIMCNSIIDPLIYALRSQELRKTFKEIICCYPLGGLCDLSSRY

[2] = DRUGMATRIX: Phorbol Ester radioligand binding (ligand: [3H] PDBu); type: cell membranes, Mus musculus, ICR, Brain, Membrane; settings: Not Active = under 50% inhibition at 10 µM
[3] = target: Mitogen-activated protein kinase 3 (Homo sapiens, UniProt P27361); assay: DRUGMATRIX: Protein Serine/Threonine Kinase, ERK1 enzyme inhibition (substrate: Myelin Basic Protein); design: species or system Escherichia coli; settings: Not Active = under 50% inhibition at 10 µM
Mitogen-activated protein kinase 3, sequence (P27361 whole entry): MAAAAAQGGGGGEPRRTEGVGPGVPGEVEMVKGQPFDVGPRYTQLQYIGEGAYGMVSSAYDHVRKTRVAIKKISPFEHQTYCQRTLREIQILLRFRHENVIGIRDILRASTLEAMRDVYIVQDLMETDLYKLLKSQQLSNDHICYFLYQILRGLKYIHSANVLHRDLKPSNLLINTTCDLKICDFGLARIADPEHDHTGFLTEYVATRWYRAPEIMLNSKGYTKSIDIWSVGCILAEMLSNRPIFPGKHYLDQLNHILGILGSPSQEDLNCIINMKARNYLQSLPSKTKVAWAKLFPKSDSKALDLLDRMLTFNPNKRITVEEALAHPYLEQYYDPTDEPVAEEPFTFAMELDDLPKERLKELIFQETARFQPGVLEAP

Glucocorticoid receptor = target: T2, Glucocorticoid receptor (Homo sapiens, UniProt P04150); settings: hela s3; note: in other assays of this panel Not Active means under 50% inhibition at 10 µM
T2 sequence (P04150 whole entry): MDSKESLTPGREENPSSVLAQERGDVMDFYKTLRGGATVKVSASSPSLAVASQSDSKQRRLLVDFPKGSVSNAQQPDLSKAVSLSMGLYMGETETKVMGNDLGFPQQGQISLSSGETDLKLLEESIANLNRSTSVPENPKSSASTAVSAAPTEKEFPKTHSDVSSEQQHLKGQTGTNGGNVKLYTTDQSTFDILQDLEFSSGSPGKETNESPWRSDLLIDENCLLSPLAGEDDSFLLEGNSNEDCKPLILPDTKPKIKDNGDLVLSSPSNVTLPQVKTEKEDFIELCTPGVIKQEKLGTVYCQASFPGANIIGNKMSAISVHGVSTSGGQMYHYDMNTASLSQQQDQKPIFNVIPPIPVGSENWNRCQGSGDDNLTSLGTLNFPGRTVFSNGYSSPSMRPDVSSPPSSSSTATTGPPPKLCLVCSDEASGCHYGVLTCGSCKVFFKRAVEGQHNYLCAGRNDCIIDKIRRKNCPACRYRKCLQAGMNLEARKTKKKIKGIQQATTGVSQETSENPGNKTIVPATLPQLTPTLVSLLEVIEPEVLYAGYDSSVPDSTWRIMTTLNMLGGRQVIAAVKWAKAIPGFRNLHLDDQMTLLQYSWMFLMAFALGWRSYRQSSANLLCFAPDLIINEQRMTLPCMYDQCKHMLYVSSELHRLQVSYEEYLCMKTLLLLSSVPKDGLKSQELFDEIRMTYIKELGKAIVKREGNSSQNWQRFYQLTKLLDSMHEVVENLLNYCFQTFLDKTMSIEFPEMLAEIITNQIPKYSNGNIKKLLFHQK

Estrogen receptor beta = Estrogen receptor beta (Homo sapiens, UniProt Q92731); settings: sf9; note: in other assays of this panel Not Active means under 50% inhibition at 10 µM
Estrogen receptor beta, sequence (Q92731 whole entry): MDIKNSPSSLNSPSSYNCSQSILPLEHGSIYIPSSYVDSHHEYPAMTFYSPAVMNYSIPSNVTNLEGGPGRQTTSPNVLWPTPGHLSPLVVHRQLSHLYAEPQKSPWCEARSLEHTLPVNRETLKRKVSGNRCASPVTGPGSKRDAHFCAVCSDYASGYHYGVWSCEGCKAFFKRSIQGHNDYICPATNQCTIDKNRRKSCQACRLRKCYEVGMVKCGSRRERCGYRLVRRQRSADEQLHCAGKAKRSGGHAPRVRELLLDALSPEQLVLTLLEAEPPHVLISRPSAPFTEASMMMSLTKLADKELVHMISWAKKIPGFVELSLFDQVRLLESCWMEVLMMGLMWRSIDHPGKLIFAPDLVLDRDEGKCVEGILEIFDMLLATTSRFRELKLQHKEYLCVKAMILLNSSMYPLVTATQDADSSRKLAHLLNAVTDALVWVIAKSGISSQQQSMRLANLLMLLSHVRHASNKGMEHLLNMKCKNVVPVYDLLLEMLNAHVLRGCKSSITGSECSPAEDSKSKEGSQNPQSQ

Cannabinoid receptor 1, sequence (P21554 whole entry): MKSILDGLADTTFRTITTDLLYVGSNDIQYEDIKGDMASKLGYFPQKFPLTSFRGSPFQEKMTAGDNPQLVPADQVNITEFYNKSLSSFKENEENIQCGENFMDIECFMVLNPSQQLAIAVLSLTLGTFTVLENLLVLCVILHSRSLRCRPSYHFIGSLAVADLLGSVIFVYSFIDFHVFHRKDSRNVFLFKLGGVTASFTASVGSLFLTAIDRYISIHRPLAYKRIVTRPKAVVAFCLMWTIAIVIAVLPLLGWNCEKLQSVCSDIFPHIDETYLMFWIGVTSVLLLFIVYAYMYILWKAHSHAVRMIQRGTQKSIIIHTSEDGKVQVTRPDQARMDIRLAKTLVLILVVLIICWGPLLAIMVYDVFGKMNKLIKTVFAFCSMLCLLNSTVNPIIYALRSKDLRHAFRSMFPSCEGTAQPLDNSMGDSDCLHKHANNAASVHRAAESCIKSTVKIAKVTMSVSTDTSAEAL

| Compound | IC50 (Cannabinoid receptor 1) | IC50 [1] | IC50 (Melanocortin receptor 4) | IC50 [2] | Ki [2] | IC50 [3] | IC50 (Glucocorticoid receptor) | IC50 ([3]; read-out: IC50) [µM] | IC50 (Estrogen receptor beta) |
| --- | --- | --- | --- | --- | --- | --- | --- | --- | --- |
| CCCNC(C)C(=O)Nc1ccccc1C (centres undefined) [PRILOCAINE] | Not Active | Not Active | Not Active | Not Active | Not Active | Not Active | Not Active |  |  |
| Cc1c(O)cccc1C(=O)N[C@@H](CSc1ccccc1)[C@H](O)CN1C[C@H]2CCCC[C@H]2C[C@H]1C(=O)NC(C)(C)C | Not Active | Not Active | Not Active | Not Active | Not Active |  |  | 22.5 |  |
| Cn1c(=O)c2c(ncn2C)n(C)c1=O [CAFFEINE] | Not Active | Not Active | Not Active | Not Active | Not Active | Not Active | Not Active |  |  |
| CC(C)NCC(O)c1ccccc1Cl (centres undefined) [CLORPRENALINE] | Not Active | Not Active | Not Active | Not Active | Not Active | Not Active |  |  |  |
| C[C@]12C=CC(=O)C=C1CC[C@H]1[C@@H]3C[C@@H](O)[C@](O)(C(=O)CO)[C@@]3(C)C[C@H](O)[C@@]12F [TRIAMCINOLONE] | Not Active | Not Active | Not Active | Not Active | Not Active | Not Active |  |  |  |
| CC(=O)OCC(=O)[C@@]1(O)CC[C@H]2[C@@H]3CCC4=CC(=O)CC[C@]4(C)[C@@]3(F)[C@@H](O)C[C@@]21C [FLUDROCORTISONE ACETATE] | Not Active | Not Active | Not Active | Not Active | Not Active | Not Active |  |  | Not Active |
| CN(C)C(=O)Oc1cccc([N+](C)(C)C)c1.[Br-] [NEOSTIGMINE BROMIDE] | Not Active | Not Active | Not Active | Not Active | Not Active | Not Active | Not Active |  |  |
| C[C@]12CC[C@@H]3c4ccc(O)cc4CC[C@H]3[C@@H]1C[C@@H](O)[C@@H]2O [ESTRIOL] | Not Active | Not Active | Not Active | Not Active | Not Active | Not Active |  |  | Not Active |
| CCN(CC)CCNC(=O)c1ccc(N)cc1 [PROCAINAMIDE] | Not Active | Not Active | Not Active | Not Active | Not Active | Not Active |  |  | Not Active |
| O=C(O)P(=O)(O)O [FOSCARNET] | Not Active | Not Active | Not Active | Not Active | Not Active | Not Active | Not Active |  |  |
| CC(=O)OCC(=O)[C@@]12OC(C)(C)O[C@@H]1C[C@H]1[C@@H]3C[C@H](F)C4=CC(=O)C=C[C@]4(C)[C@@]3(F)[C@@H](O)C[C@@]12C [FLUOCINONIDE] | Not Active | Not Active | Not Active | Not Active | Not Active | Not Active |  |  | Not Active |
| CCn1cc(C(=O)O)c(=O)c2cc(F)c(N3CCNC(C)C3)c(F)c21 (centres undefined) [LOMEFLOXACIN] | Not Active | Not Active | Not Active | Not Active | Not Active | Not Active | Not Active |  |  |
| C[C@H]1COc2c(N3CCN(C)CC3)c(F)cc3c(=O)c(C(=O)O)cn1c23.C[C@H]1COc2c(N3CCN(C)CC3)c(F)cc3c(=O)c(C(=O)O)cn1c23.O [LEVOFLOXACIN] | Not Active | Not Active | Not Active | Not Active | Not Active | Not Active |  |  |  |
| NC(=O)N1c2ccccc2CC(=O)c2ccccc21 [OXCARBAZEPINE] | Not Active | Not Active | Not Active | Not Active | Not Active | Not Active |  |  | Not Active |
| C#C[C@]1(O)CC[C@H]2[C@@H]3CCC4=CC(=O)CC[C@]4(C)[C@H]3CC[C@@]21C [ETHISTERONE] | Not Active | Not Active | Not Active | Not Active | Not Active | Not Active |  |  | Not Active |
| Cc1ccc(C)c(OCCCC(C)(C)C(=O)O)c1 [GEMFIBROZIL] | Not Active | Not Active | Not Active | Not Active | Not Active | Not Active |  |  | Not Active |

| Compound | IC50 (Cannabinoid receptor 1) | IC50 [1] | IC50 (Melanocortin receptor 4) | IC50 [2] | Ki [2] | IC50 [3] | IC50 (Glucocorticoid receptor) | IC50 ([3]; read-out: IC50) [µM] | IC50 (Estrogen receptor beta) |
| --- | --- | --- | --- | --- | --- | --- | --- | --- | --- |
| NNCCc1ccccc1 [PHENELZINE] | Not Active | Not Active | Not Active | Not Active | Not Active | Not Active | Not Active |  |  |
| C[S+](C)[O-] [DIMETHYL SULFOXIDE] | Not Active | Not Active | Not Active | Not Active | Not Active | Not Active | Not Active |  |  |
| COc1cc(OC)c(C(=O)CCCN2CCCC2)c(OC)c1 [BUFLOMEDIL] | Not Active | Not Active | Not Active | Not Active | Not Active | Not Active | Not Active |  |  |
| CCOC(=O)c1ncn2c1CN(C)C(=O)c1cc(F)ccc1-2 [FLUMAZENIL] | Not Active | Not Active | Not Active | Not Active | Not Active | Not Active |  |  |  |
| COc1ccc2c(c1OC)C(=O)O[C@@H]2[C@H]1c2c(cc3c(c2OC)OCO3)CCN1C [NOSCAPINE] | Not Active | Not Active | Not Active | Not Active | Not Active | Not Active | Not Active |  |  |
| CCN(C(C)=O)c1cccc(-c2ccnc3c(C#N)cnn23)c1 [ZALEPLON] | Not Active | Not Active | Not Active | Not Active | Not Active | Not Active |  |  |  |
| CN1C(=O)CN=C(c2ccccc2)c2cc([N+](=O)[O-])ccc21 [NIMETAZEPAM] | Not Active | Not Active | Not Active | Not Active | Not Active | Not Active | Not Active |  |  |
| ClC(Cl)(Cl)Cl [CARBON TETRACHLORIDE] | Not Active | Not Active | Not Active | Not Active | Not Active | Not Active |  |  | Not Active |
| NC12CC3CC(CC(C3)C1)C2 [AMANTADINE] | Not Active | Not Active | Not Active | Not Active | Not Active | Not Active | Not Active |  |  |
| CC(C)c1c(C(=O)Nc2ccccc2)c(-c2ccccc2)c(-c2ccc(F)cc2)n1CC[C@@H](O)C[C@@H](O)CC(=O)O [ATORVASTATIN] | Not Active | Not Active | Not Active | Not Active | Not Active | Not Active | Not Active |  |  |
| N=C(N)c1ccc(OCCCCCOc2ccc(C(=N)N)cc2)cc1 [PENTAMIDINE] | Not Active | Not Active | Not Active | Not Active | Not Active | Not Active | Not Active |  |  |
| CC(O)(P(=O)(O)O)P(=O)(O)O [ETIDRONIC ACID] | Not Active | Not Active | Not Active | Not Active | Not Active | Not Active |  |  |  |
| CCCCC1=NC2(CCCC2)C(=O)N1Cc1ccc(-c2ccccc2-c2nnn[nH]2)cc1 [IRBESARTAN] | Not Active | Not Active | Not Active | Not Active | Not Active | Not Active |  |  | Not Active |
| COc1ccccc1N | Not Active | Not Active | Not Active | Not Active | Not Active | Not Active |  |  |  |
| CS(=O)(=O)Nc1ccc([N+](=O)[O-])cc1Oc1ccccc1 [NIMESULIDE] | Not Active | Not Active | Not Active | Not Active | Not Active | Not Active |  |  | Not Active |
